Test results from ChEMBL document CHEMBL1144280, “Inhibitors of type I MetAPs containing pyridine-2-carboxylic acid thiazol-2-ylamide. Part 1: SAR studies on the determination of the key scaffold” (Bioorg Med Chem Lett, 2005).
pIC50: −log10 of the molar value.

How the values were obtained:
[1] = molecular target: T1, Methionine aminopeptidase (Escherichia coli K-12, UniProt P0AE18); test: Inhibitory concentration against Escherichia coli methionine aminopeptidase 1
T1 sequence (P0AE18 whole entry): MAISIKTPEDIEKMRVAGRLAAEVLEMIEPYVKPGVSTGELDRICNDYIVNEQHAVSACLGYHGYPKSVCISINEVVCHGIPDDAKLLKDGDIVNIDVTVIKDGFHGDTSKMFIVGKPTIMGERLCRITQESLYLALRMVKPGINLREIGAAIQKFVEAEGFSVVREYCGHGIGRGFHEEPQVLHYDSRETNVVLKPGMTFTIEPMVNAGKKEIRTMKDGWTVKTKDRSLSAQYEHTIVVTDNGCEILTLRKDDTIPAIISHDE

[2] = molecular target: T2, Methionine aminopeptidase 1 (Saccharomyces cerevisiae S288c, UniProt Q01662); test: Inhibitory concentration against Saccharomyces cerevisiae methionine aminopeptidase 1
T2 sequence (Q01662 whole entry): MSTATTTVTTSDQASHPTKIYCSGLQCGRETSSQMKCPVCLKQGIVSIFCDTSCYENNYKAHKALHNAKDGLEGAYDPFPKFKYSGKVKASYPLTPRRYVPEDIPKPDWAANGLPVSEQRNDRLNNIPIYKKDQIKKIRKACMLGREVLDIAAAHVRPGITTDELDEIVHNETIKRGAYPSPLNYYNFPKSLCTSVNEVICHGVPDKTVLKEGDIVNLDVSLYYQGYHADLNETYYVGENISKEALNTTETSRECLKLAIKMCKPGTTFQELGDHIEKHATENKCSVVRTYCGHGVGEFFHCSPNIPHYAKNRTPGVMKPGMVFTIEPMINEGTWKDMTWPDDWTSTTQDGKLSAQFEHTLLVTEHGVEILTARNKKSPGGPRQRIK

Row | SMILES | pIC50 [1] | pIC50 [2]
1 | Nc1ccc(C(=O)Nc2nccs2)nc1 | 5.68 | 5.61
2 | CC(C)=CCc1ccc(C(=O)Nc2nccs2)nc1 | < 4.00 | < 4.00
3 | COc1ccnc(C(=O)Nc2nccs2)c1 |  | < 4.00
4 | O=C(Nc1nccs1)c1cc(Cl)ccn1 | < 4.00 | < 4.00
5 | O=C(Nc1nccs1)c1cc(OCc2ccccc2)ccn1 | < 4.00 | < 4.00
6 | O=C(Nc1nccs1)c1cc(NCc2ccccc2)ccn1 | 5.63 | < 4.00
7 | Nc1ccnc(C(=O)Nc2nccs2)c1 | 5.17 | < 4.00
8 | O=C(Nc1nccs1)c1cccc(C(=O)Nc2nccs2)n1 | < 4.00 | < 4.00
9 | CC(=O)Nc1ccnc(C(=O)Nc2nccs2)c1 | 5.70 | 4.77
10 | O=C(Nc1nccs1)c1ncccc1OCc1ccccc1 | 5.85 | 6.11
11 | CC(=O)OCc1cccc(C(=O)Nc2nccs2)n1 | < 4.00 | 
12 | CCCCc1ccc(C(=O)Nc2nccs2)nc1 | < 4.00 | < 4.00
13 | CC(C)(C)OC(=O)Nc1ccc(C(=O)Nc2nccs2)nc1 | 4.89 | 4.20
14 | O=C(Nc1nccs1)c1cc([N+](=O)[O-])ccn1 | 5.35 | < 4.00
